Test results published in patent US10308686B2, “Gamma-AApeptides with potent and broad-spectrum antimicrobial activity” (priority 2012, dated 2019).
Converted amounts (≈) assume the structure as drawn. Read-outs that look alike come from different tables or passages of the source.

Key:
[1] = tested on: human red blood cells (hRBC's); assay: Hemolysis assay; type: cell-based
Method: Freshly drawn human red blood cells (hRBC's) with additive K2 EDTA (spray-dried) were washed with PBS buffer several times and centrifuged at 1000 g for 10 min until a clear supernatant was observed. The hRBC's were resuspended in 1×PBS to get a 5% v/v suspension. Two-fold serial dilutions of γ-AApeptides dissolved in 1×PBS from 250 μg/ml through 1.6 μg/ml were added to a sterile 96-well plate to make up a total volume of 50 μL in each well. Then 50 μL of 5% v/v hRBC solution was added to make up a total volume of 100 μL in each well. The 0% hemolysis point and 100% hemolysis point were determined in 1×PBS and 0.2% Triton-X-100, respectively (Patch et al., 2003). The plate was then incubated at 37° C. for 1 h and centrifuged at 3500 rpm for 10 min. The supernatant (30 μL) was diluted with 100 μL of 1×PBS and absorption was detected by measuring the optical density at 360 nm by Biotek Synergy HT microtiter plate reader. % hemolysis was determined by the following equation: % hemolysis=(Abssample−AbsPBS)/(AbsTriton−AbsPBS)×100 H50 is the concentration of γ-AApeptide amphiphiles at which 50% hemolysis was observed. The highest concentration tested in the hemolytic assay was 500 μg/ml. 7. Fluorescence Microscopy
The sequences shown in FIG. 12 were also evaluated via hemolytic assays. Freshly drawn human red blood cells (hRBC's) with additive K2 EDTA (spray-dried) were washed with PBS buffer several times and centrifuged at 1000 g for 10 min until a clear supernatant was observed. The hRBC's were resuspended in 1×PBS to get a 5% v/v suspension. Two-fold serial dilutions of lipidated γ-AApeptides dissolved in 1×PBS from 1 mg/ml through 6.3 μg/ml were added to sterile 96-well plates to make up a total volume of 50 μL in each well. Then 50 μL of 5% v/v hRBC solution was added to make up a total volume of 100 μL in each well. The 0% hemolysis point and 100% hemolysis point were determined in 1×PBS and 0.2% Triton-X-100, respectively (Patch et al., 2003). The plate was then incubated at 37° C. for 1 h and centrifuged at 3500 rpm for 10 min. The supernatant (30 μL) was diluted with 100 μL of 1×PBS and absorption was detected by measuring the optical density at 360 nm with a Biotek Synergy HT microtiter plate reader. % hemolysis was determined by the following equation: % hemolysis=(Abs sample−Abs PBS)/(Abs Triton−Abs PBS)×100

[2] = tested on: vancomycin-resistant E. faecalis (ATCC 700802)
[3] = tested on: methicillin-resistant S. aureus (ATCC 33592)
[4] = tested on: multi-drug resistant P. aeruginosa ATCC 27853; conditions: Table 5
[5] = tested on: K. pneumoniae (ATCC 13383)
[6] = tested on: multi-drug resistant S. epidermidis (RP62A)
[7] = Table 5, first value of H10/H50
[8] = Table 5, second value of H10/H50

SMILES	Hemolysis H10 [1, 7]	Hemolysis H50 [1, 8]	MIC, E. faecalis (VREF) ([2]; ATCC 700802)	MIC, S. aureus (MRSA) ([3]; ATCC 33592)	MIC, K. pneumoniae [5]	MIC, S. epidermidis (MRSE) ([6]; multi-drug resistant (RP62A))	MIC, Fungus C. albicans (C. albicans (ATCC 10231); ATCC 10231)	MIC, E. coli (E. coli (JM109))	MIC, E. faecalis (vancomycin-resistant) ([2]; Table 1)	MIC, B. subtilis (B. subtilis (BR151))	MIC, S. aureus (methicillin-resistant) ([3]; Table 1)	MIC, K. pneumoniae (causing pneumonia) [5]	MIC, S. epidermidis (multi-drug resistant) ([6]; Table 1)	further results
CC(C)CCC(=O)N1CC(=O)N[C@@H](CCCCN)CN(C(=O)CCc2ccccc2)CC(=O)N[C@@H](CCCCN)CN(C(=O)CCc2ccccc2)CC(=O)N[C@@H](Cc2ccccc2)CN(CC(N)=O)C(=O)CCC(=O)N[C@@H](CCCCN)CN(C(=O)CCc2ccccc2)CC(=O)N[C@@H](CCCCN)CN(C(=O)CCc2ccccc2)CC(=O)N[C@@H](CCCCN)CN(C(=O)CCc2ccccc2)CC(=O)N[C@@H](Cc2ccccc2)C1 [HW-B-11]	200 µg/mL	> 500 µg/mL	15 µg/mL (≈ 7.16 µM)	5 µg/mL (≈ 2.39 µM)	20 µg/mL (≈ 9.55 µM)	2 µg/mL (≈ 0.955 µM)	–	–	–	–	–	–	–	MIC, Fungus C. albicans (C. albicans (ATCC 10231); Table 5): 5 µg/mL (≈ 2.39 µM); MIC, P. aeruginosa [4]: 10 µg/mL (≈ 4.77 µM)
CC(C)CCC(=O)N1CC(=O)N[C@@H](Cc2ccccc2)CN(C(=O)CCC(C)C)CC(=O)N[C@@H](CCCCN)CN(C(=O)CCc2ccccc2)CC(=O)N[C@@H](CCCCN)CN(C(=O)CCc2ccccc2)CC(=O)N[C@@H](CCCCN)CN(C(=O)CCc2ccccc2)CC(=O)N[C@@H](CCCCN)CN(C(=O)CCc2ccccc2)CC(=O)N[C@@H](Cc2ccccc2)CN(CC(N)=O)C(=O)CCC(=O)N[C@@H](Cc2ccccc2)C1 [HW-B-13]	–	–	–	–	8 µg/mL (≈ 3.85 µM)	–	2 µg/mL (≈ 0.962 µM)	–	–	–	–	–	–	Hemolysis H10 [1]: 40 µg/mL; Hemolysis H50 [1]: 100 µg/mL; MIC, E. faecalis (VREF) ([2]; Table 5): 5 µg/mL (≈ 2.4 µM); MIC, S. aureus (MRSA) ([3]; Table 5): 1; MIC, S. epidermidis (MRSE) ([6]; Table 5): 2 µg/mL (≈ 0.962 µM)
CC(C)CCC(=O)N1CC(=O)N[C@@H](Cc2ccccc2)CN(C(=O)CCC(C)C)CC(=O)N[C@@H](Cc2ccccc2)CN(C(=O)CCC(C)C)CC(=O)N[C@@H](CCCCN)CN(C(=O)CCc2ccccc2)CC(=O)N[C@@H](CCCCN)CN(C(=O)CCc2ccccc2)CC(=O)N[C@@H](CCCCN)CN(C(=O)CCc2ccccc2)CC(=O)N[C@@H](Cc2ccccc2)CN(CC(N)=O)C(=O)CCC(=O)N[C@@H](Cc2ccccc2)C1 [HW-B-14]	45 µg/mL	300 µg/mL	5 µg/mL (≈ 2.42 µM)	3 µg/mL (≈ 1.45 µM)	10 µg/mL (≈ 4.84 µM)	2 µg/mL (≈ 0.969 µM)	4 µg/mL (≈ 1.94 µM)	–	–	–	–	–	–	–
NCCCC[C@H](N)CN(CC(=O)N[C@@H](CCCCN)CN(CC(=O)N[C@@H](CCCCN)CN(CC(N)=O)C(=O)CCc1ccccc1)C(=O)CCc1ccccc1)C(=O)CCc1ccccc1 [γ1]	–	–	–	–	–	–	–	>100 µg/mL	>100 µg/mL	>100 µg/mL	>100 µg/mL	>100 µg/mL	>100 µg/mL	–
NCCCC[C@H](N)CN(CC(=O)N[C@@H](CCCCN)CN(CC(=O)N[C@@H](CCCCN)CN(CC(=O)N[C@@H](CCCCN)CN(CC(=O)N[C@@H](CCCCN)CN(CC(N)=O)C(=O)CCc1ccccc1)C(=O)CCc1ccccc1)C(=O)CCc1ccccc1)C(=O)CCc1ccccc1)C(=O)CCc1ccccc1 [γ2]	–	–	–	–	–	–	–	25 µg/mL (≈ 16.3 µM)	>100 µg/mL	5 µg/mL (≈ 3.26 µM)	>100 µg/mL	>100 µg/mL	>100 µg/mL	–
CC(C)CCC(=O)N1CC(=O)N[C@@H](CCCCN)CN(C(=O)CCc2ccccc2)CC(=O)N[C@@H](CCCCN)CN(C(=O)CCc2ccccc2)CC(=O)N[C@@H](Cc2ccccc2)CN(CC(N)=O)C(=O)CCC(=O)N[C@@H](CCCCN)CN(C(=O)CCc2ccccc2)CC(=O)N[C@@H](CCCCN)CN(C(=O)CCc2ccccc2)CC(=O)N[C@@H](CCCCN)CN(C(=O)CCc2ccccc2)CC(=O)N[C@@H](Cc2ccccc2)C1 [γAA4]	–	–	–	–	–	–	–	3.1 to 6.3 µg/mL	–	2 µg/mL (≈ 0.955 µM)	–	>100 µg/mL	–	Hemolysis (H50) ([1]; Table 3): >500 µg/mL; MIC, Fungi C. albicans (C. albicans (ATCC 10231); ATCC 10231): 3 to 6 µg/mL; MIC, E. faecalis (vancomycin-resistant) ([2]; ATCC 700802): 12.5 to 25 µg/mL; MIC, S. aureus (methicillin-resistant) ([3]; ATCC 33592): 3.1 to 6.3 µg/mL; MIC, S. epidermidis (multi-drug resistant) ([6]; multi-drug resistant (RP62A)): 2 µg/mL (≈ 0.955 µM)
